Measured values published in the supplement of paper PMC10307832.

Columns and labels:
Experiment in all cases: relative viability (nuclei count vs DMSO), 5 days (fraction); higher = more cells survive
[1] = compound: CN(c1ncccc1CNc1nc(Nc2ccc3c(c2)CC(=O)N3)ncc1C(F)(F)F)S(C)(=O)=O + O=C(CCCCCCC(=O)Nc1ccccc1)NO [Vorinostat] (partner 1 µM)
Method in brief: (§1)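 Relative viability equals treated-well nuclei counts divided by vehicle-well nuclei counts. Counts came from 4× images of lung cancer cell lines grown in 1536-well plates for 5 days after pin-tool dosing on the day after seeding. Dosing used one drug alone or a fixed anchor-drug dose plus five library-drug doses (not always all listed) in √10 steps, and values are medians of duplicate plates.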

[2] = compound: CN(c1ncccc1CNc1nc(Nc2ccc3c(c2)CC(=O)N3)ncc1C(F)(F)F)S(C)(=O)=O + Nc1nc2[nH]cc(CCc3ccc(C(=O)N[C@@H](CCC(=O)O)C(=O)O)cc3)c2c(=O)[nH]1 [Pemetrexed] (partner 0.2 µM)
Method in brief: as §1

[3] = compound: CN(c1ncccc1CNc1nc(Nc2ccc3c(c2)CC(=O)N3)ncc1C(F)(F)F)S(C)(=O)=O + Cc1nc(Nc2ncc(C(=O)Nc3c(C)cccc3Cl)s2)cc(N2CCN(CCO)CC2)n1 [Dasatinib] (partner 0.075 µM)
Method in brief: as §1

[4] = compound: CN(c1ncccc1CNc1nc(Nc2ccc3c(c2)CC(=O)N3)ncc1C(F)(F)F)S(C)(=O)=O + CC(=O)c1c(C)c2cnc(Nc3ccc(N4CCNCC4)cn3)nc2n(C2CCCC2)c1=O [Palbociclib] (partner 0.5 µM)
Method in brief: as §1

Row | Cell Line | relative viability ([1]; first compound 0.01 µM) | relative viability ([1]; first compound 0.03162 µM) | relative viability ([1]; first compound 0.1 µM) | relative viability ([1]; first compound 0.3162 µM) | relative viability ([1]; first compound 1 µM) | relative viability ([2]; first compound 0.01 µM) | relative viability ([2]; first compound 0.03162 µM) | relative viability ([2]; first compound 0.1 µM) | relative viability ([2]; first compound 0.3162 µM) | relative viability ([2]; first compound 1 µM) | relative viability ([3]; first compound 0.01 µM) | relative viability ([3]; first compound 0.03162 µM) | relative viability ([3]; first compound 0.1 µM) | relative viability ([3]; first compound 0.3162 µM) | relative viability ([3]; first compound 1 µM) | relative viability ([4]; first compound 0.01 µM) | relative viability ([4]; first compound 0.03162 µM) | relative viability ([4]; first compound 0.1 µM) | relative viability ([4]; first compound 0.3162 µM) | relative viability ([4]; first compound 1 µM)
1 | NCI-H441 | 0.933 | 0.978 | 0.824 | 0.792 | 0.644 | 0.222 | 0.262 | 0.244 | 0.292 | 0.262 | 0.631 | 0.497 | 0.378 | 0.35 | 0.295 | 0.23 | 0.239 | 0.181 | 0.176 | 0.16
2 | NCI-H460 | 0.696 | 0.757 | 0.615 | 0.76 | 0.736 | 0.0683 | 0.0581 | 0.0611 | 0.0605 | 0.0728 | 0.62 | 0.505 | 0.462 | 0.456 | 0.436 | 0.147 | 0.179 | 0.148 | 0.21 | 0.15
3 | NCI-H520 | 0.678 | 0.925 | 0.693 | 0.746 | 0.754 | 0.609 | 0.924 | 0.632 | 0.768 | 0.705 | 0.21 | 0.221 | 0.151 | 0.152 | 0.155 | 0.27 | 0.209 | 0.244 | 0.262 | 0.24
4 | NCI-H522 | 0.906 | 1.06 | 0.919 | 0.973 | 0.961 | 1.21 | 0.923 | 1.03 | 0.899 | 1.06 | 0.889 | 0.832 | 0.95 | 0.725 | 0.979 | 1.06 | 1.01 | 1.08 | 1.15 | 0.752
5 | NCI-H647 | 0.473 | 0.742 | 0.476 | 0.577 | 0.631 | 0.192 | 0.163 | 0.167 | 0.178 | 0.17 | 0.146 | 0.193 | 0.127 | 0.151 | 0.125 | 0.349 | 0.402 | 0.319 | 0.367 | 0.322
6 | NCI-H650 | 0.454 | 0.565 | 0.557 | 0.415 | 0.303 | 0.884 | 0.935 | 0.826 | 1.04 | 0.621 | 0.445 | 0.459 | 0.434 | 0.434 | 0.456 | 0.324 | 0.32 | 0.307 | 0.266 | 0.3
7 | NCI-H661 | 0.763 | 0.84 | 0.744 | 0.786 | 0.759 | 0.869 | 0.941 | 0.885 | 0.832 | 0.833 | 0.973 | 0.809 | 0.885 | 0.782 | 0.83 | 0.406 | 0.385 | 0.429 | 0.383 | 0.341
8 | NCI-H838 | 0.715 | 0.731 | 0.94 | 0.589 | 0.437 | 0.247 | 0.258 | 0.247 | 0.219 | 0.238 | 0.27 | 0.279 | 0.217 | 0.305 | 0.205 | 0.243 | 0.237 | 0.211 | 0.204 | 0.204
9 | NCI-H1355 | 0.67 | 0.708 | 0.676 | 0.589 | 0.623 | 1.02 | 0.981 | 0.993 | 1.02 | 0.973 | 0.757 | 0.76 | 0.75 | 0.606 | 0.645 | 0.387 | 0.362 | 0.407 | 0.418 | 0.331
10 | NCI-H1395 | 0.792 | 0.698 | 0.725 | 0.659 | 0.898 | 1 | 0.882 | 0.865 | 0.98 | 0.909 | 0.461 | 0.374 | 0.359 | 0.414 | 0.386 | 0.649 | 0.602 | 0.698 | 0.655 | 0.596
11 | NCI-H1437 | 0.763 | 0.846 | 0.697 | 0.597 | 0.414 | 0.332 | 0.335 | 0.33 | 0.347 | 0.398 | 0.401 | 0.391 | 0.426 | 0.204 | 0.427 | 0.348 | 0.297 | 0.265 | 0.269 | 0.209
12 | NCI-H1650 | 0.682 | 0.513 | 0.581 | 0.586 | 0.69 | 0.379 | 0.321 | 0.432 | 0.384 | 0.318 | 0.303 | 0.367 | 0.339 | 0.303 | 0.327 | 0.291 | 0.31 | 0.367 | 0.321 | 0.304
13 | NCI-H1651 | 0.565 | 0.566 | 0.535 | 0.568 | 0.571 | 0.585 | 0.593 | 0.558 | 0.575 | 0.579 | 0.47 | 0.374 | 0.38 | 0.316 | 0.282 | 0.527 | 0.529 | 0.529 | 0.487 | 0.5
14 | NCI-H1666 | 1.07 | 0.94 | 0.926 | 0.758 | 0.767 | 0.877 | 0.82 | 0.805 | 0.78 | 0.787 | 0.804 | 0.778 | 0.961 | 0.935 | 0.603 | 0.696 | 0.614 | 0.627 | 0.639 | 0.543
15 | NCI-H1734 | 0.809 | 0.818 | 0.799 | 0.8 | 0.781 | 0.421 | 0.379 | 0.395 | 0.421 | 0.439 | 0.423 | 0.436 | 0.399 | 0.339 | 0.34 | 0.35 | 0.327 | 0.345 | 0.348 | 0.304
16 | NCI-H1755 | 0.79 | 0.756 | 0.787 | 0.75 | 0.66 | 0.478 | 0.451 | 0.426 | 0.398 | 0.487 | 0.414 | 0.412 | 0.329 | 0.365 | 0.325 | 0.449 | 0.473 | 0.452 | 0.44 | 0.434
